Experimental data taken from patent US12268676B2, “Antiviral applications of picolinic acid and its derivatives” (INDIAN INSTITUTE OF SCIENCE, priority 2021, dated 2025).
Several values for one entry are separate records, joined by “and”; a condition that tells them apart may be missing. Identical values can stand only once. Like-named read-outs stand apart in the source and are kept apart here.

Assays:
[1] = system: Influenza A viruses (IAVs); assay: microbe, parasite or virus in culture; type: cell-based, Influenza A virus
SARS-CoV-2 spike protein = assay: SARS-CoV-2 spike induced syncytia assay; type: cell-based; details: Severe acute respiratory syndrome coronavirus 2, Vero C1008, 24 h, read-out: inhibition of syncytia (area, percentage of untreated control)
CVB3 = CVB3 multi-dose infection, plaque assay of supernatants; type: cell-based, Coxsackie virus B3; details: Vero cells, increasing concentrations of PA, 0.1 MOI, 48 hr p.i.
Text: Further, Vero cells were pre-treated with increasing concentrations of PA as indicated and infected with 0.1 MOI CVB3 in the presence of drugs. 48 hr p.i, cell culture supernatants were used to quantify infectious virus by plaque assay.

[2] = system: Japanese Encephalitis Virus (JEV) clinical strain P20778; assay: JEV infection, western blot of flavivirus envelope protein; type: cell-based; details: 2 mM PA
M. smegmatis cells = assay: Bacterial toxicity assay, OD600; type: cell-based, Mycobacterium smegmatis; details: up to 24 hr, least concentration tested
Method: Since most of the naked viruses tested were not inhibited by PA, whether PA would be effective against TM4 mycobacteriophages. M. smegmatis cells in a 48 well plate were treated with increasing concentrations of PA as indicated and OD600 measurements were taken periodically up to 24 hr. […] For the antiviral assay, 1 mM PA was either added at the start of experiment or 3 hr prior to infection. In either case, there was no protection from TM4 mycobacteriophage induced cell death (FIG. 12, panel G).
Bacterial toxicity assay: PA stock solution of 1M concentration was prepared in sterile deionized water and diluted to obtain different concentrations (1 mM, 5 mM, 10 Mm, 20 mM, and 40 mM), in a 48-well plate. A total of 2×10^5 cells of M. smegmatis were added to each of the wells. The 48-well plate was placed in a rotary shaker incubator at 37° C. for 24 h. Readings were taken periodically using a Tecan Spark multi-mode plate reader at 600 nm.

Dengue virus (DENV Luc) = assay: microbe, parasite or virus in culture; type: cell-based; details: A549, 48 h, read-out: inhibition (luciferase, normalized with untreated control)
[3] = system: Influenza virus (NS1 Luc); assay: microbe, parasite or virus in culture; type: cell-based, Influenza A virus; details: unidentified influenza virus, A549, read-out: inhibition of virus (luminescence, percentage of untreated virus control)
[4] = system: R18 labelled PR8 WT virus; assay: Influenza virus membrane fusion assay (R18 fluorescence); type: cell-based, Influenza A virus
A549 cells = assay: Cytotoxicity of PA, Alamar Blue cell viability; type: cell-based, human
Method: Cytotoxicity of picolinic acid (PA) was tested by incubating human lung epithelial cells (A549 cells) with increasing concentrations of PA for up to 72 hrs and cell viability was measured at every 12 hr time intervals using Alamar Blue cell viability reagent (FIG. 1A). A549 cells were procured from ATCC, Manassas, Va., USA.
A549 cells were seeded in 96-well cell culture dishes and 24 hr later treated with 0.02, 0.2, 2, and 20 mM PA in triplicates. Cells were then incubated at 37° C., 5% CO2, and cytotoxicity was measured at 12, 24, 36, 48, 60, and 72 hr post-treatment using AlamarBlue™ Cell Viability Reagent (DAL 1025, Thermo Fisher) as per manufacturer's instructions.

PR8 WT virus = assay: IAV time of addition assay (IFA for NP, western blot), Example 10; type: cell-based, Influenza A virus; details: for inhibition at 2000 µM: Influenza A virus
[5] = system: PR8 WT virus (strain A/Puerto Rico/8/1934 H1N1); type: cell-based, Influenza A virus
PR8 WT virus particles = system: PR8 WT virus particles; design: species or system Influenza A virus
SARS-CoV-2 [6] = assay: SARS CoV-2 infection studies in the hamster model; type: in vivo, Syrian golden hamsters; details: for viral RNA load mitigated by: 20 mg/kg PA therapeutic treatment
[7] = system: SARS-CoV-2 (isolate hCoV-19/Hong Kong/VM20001061/2020); assay: SARS-CoV-2 multi-cycle infection, viral RNA by qRT-PCR; type: cell-based; details: for decrease in total viral RNA copy numbers: 0.01 MOI, 48 hr (FIG. 6)
[8] = system: pseudotyped SARS CoV-2 particles; assay: microbe, parasite or virus in culture; type: cell-based
[9] = system: wild type Zika virus (ZIKV) Cambodia strain; assay: ZIKV infection, western blot of flavivirus envelope protein; type: cell-based; details: 2 mM PA, 0.1 MOI, 48 hr post infection (FIG. 7L)
SARS-CoV-2 [10] = assay: SARS CoV-2 time of addition assay (IFA for spike, western blot); type: cell-based; details: for virus replication mitigated (spike positive cells, IFA): 10 MOI

## O=C(O)c1ccccn1 [PA, pyridine-2-carboxylic acid]
[1]
  reduction in virus titer: 3 fold
[1]; Influenza A virus, PR8, MDCK2, 48 h, read-out: maximum inhibition of infectious virus (plaque assay)
  inhibition at 2000 µM: 50%
SARS-CoV-2 spike protein
  inhibition at 1000 µM: 70%
  inhibition at 2000 µM: 80%
CVB3
  infectious virus in supernatants (plaque assay): did not imply any differences
[2]; 0.1 MOI, 48 hr post infection (FIG. 7K)
  flavivirus envelope protein by western blot: inhibition
[2]; VeroE6 cells, 48 hr post infection, normalized against actin
  decrease in the flavivirus envelope protein expression (western blot): 0.75 fold
M. smegmatis cells
  non-toxic concentration (OD600): 1 mM
Dengue virus (DENV Luc)
  inhibition at 2000 µM: > 90%
[3]
  inhibition at 2000 µM: 70 to 80%
[4]
  virus-entry associated increase in fluorescence intensity: able to inhibit
A549 cells; 20 mM PA, 36 hr post treatment
  cell viability: loss of cell viability
A549 cells; over the period of 72 hr
  drug concentration non-toxic to cells: up to 2 mM
PR8 WT virus
  NP positive cells (IFA): No differences
PR8 WT virus; PR8, 1 h, read-out: inhibition (IFA for nucleoprotein and western blot)
  inhibition at 2000 µM: 50%
PR8 WT virus; PR8, A549, 3 h, read-out: inhibition (IFA, NP)
  inhibition at 2000 µM: 80%
[5]
  decrease in NP positive cells: no decrease
  decrease in number of NP positive cells compared to virus control: 75% and 40%
  expression levels of virus NP by western blot, virus control vs PA treated: no difference
PR8 WT virus particles
  virion structural integrity by TEM compared to untreated control: severe disruption of viral envelope
SARS-CoV-2 [6]; 20 mg/kg PA prophylactically by IP injection
  reduction in lung viral load: ~2.5 fold
SARS-CoV-2 [6]; 20 mg/kg PA prophylactically, delivered orally
  decrease in lung viral load: 1 log
SARS-CoV-2 [6]; IP route
  viral RNA load mitigated by: ~1 log
SARS-CoV-2 [6]; oral route
  viral RNA load mitigated by: ~1 log
SARS-CoV-2 [6]; 20 mg/kg PA, prophylactic and therapeutic groups
  body weight and lung weight compared to mock treated animals: body weight as well as corresponding lung weight rescue
SARS-CoV-2 [6]; PA treated groups vs mock treated
  gross lung pathology and inflammation (images of whole lungs): much of the pathology reduced
SARS-CoV-2 [6]; PA treatment groups
  histopathology analysis and scoring of lung sections: decreased pathology
[7]; Calu3, 2 mM PA
  decrease in total viral RNA copy numbers: ~1 log10
[7]; Calu3, 2 mM PA, 0.1 MOI, 48 hr (FIG. 7E)
  reduction in viral load: 2 log
[7]; HEK ACE2, 2 mM PA
  decrease in total viral RNA copy numbers: three
[7]; VeroE6, 2 mM PA
  decrease in total viral RNA copy numbers: three
[8]
  more effective than CM: ~10%
[8]; Severe acute respiratory syndrome coronavirus 2, 60 h, read-out: inhibition of SARS-CoV-2 spike pseudotyped particles (firefly luciferase normalized to virus control)
  inhibition at 2000 µM: 90%
[8]; Severe acute respiratory syndrome coronavirus 2, read-out: inhibition of pseudotyped SARS CoV-2 virus entry
  inhibition at 2000 µM: > 50%
[9]
  flavivirus envelope protein by western blot: inhibition
SARS-CoV-2 [10]; HEK ACE2, PA added 6 hr post infection, collected 3 hr later
  inhibition of virus (IFA, western blot): ~50%
SARS-CoV-2 [10]; HEK ACE2, no pre-treatment, infected in presence of drug (T0)
  inhibition of virus (IFA, western blot): almost no inhibition
SARS-CoV-2 [10]; HEK ACE2, pre-treated 3 hr with 2 mM PA (-3 hr)
  virus replication mitigated (spike positive cells, IFA): > 80%
SARS-CoV-2 [10]; VeroE6, PA added 6 hr post infection, collected 3 hr later
  inhibition of virus (IFA, western blot): no inhibition
SARS-CoV-2 [10]; VeroE6, no pre-treatment, infected in presence of drug (T0)
  inhibition of virus (IFA, western blot): almost no inhibition
SARS-CoV-2 [10]; VeroE6, pre-treated 3 hr with 2 mM PA (-3 hr)
  virus replication mitigated (spike positive cells, IFA): > 80%
